Data as given in patent US20240425478A1, “CYCLOPENTYLPYRAZOLE CDK2 INHIBITORS” (Genentech, Inc., priority 2021, published 2024).
Like-named read-outs stand apart in the source and are kept apart here.

Assays:
[1] = target: T1, Cyclin Dependent Kinase 1/Cyclin A2 (CDK1-cycA2) (Homo sapiens, UniProt P06493); assay: CDK1-cycA2 TR-FRET (Lance) enzyme assay; format: biochemical; conditions: Table O, enzymatic assay
T1 construct: purchased ProQinase 0134-0054-1
Method in brief: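 TR-FRET (Lance) detection of phospho-4E-BP1 with a europium-labelled antibody after EDTA quench (15 mM final); signal taken as acceptor/donor ratio. Enzyme and compound were pre-incubated 30 min in HEPES pH 7.5 buffer with MgCl2, TCEP, BGG and Brij 35. Ki derived by Morrison fit.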

[2] = target: T2, Cyclin Dependent Kinase 2/Cyclin E1 (CDK2-cycE1) (Homo sapiens, UniProt P24941); assay: CDK2-cycE1 TR-FRET (LANCE) enzyme assay; format: biochemical; conditions: for FS CDK1/CDK2 / FS CDK4/CDK2: fold selectivity; for increased fold-selectivity CDK4/CDK2 over Comparator C: (+) sign after FS CDK4/CDK2; for increased fold-selectivity CDK1/CDK2 over Comparator C: (+) sign after FS CDK1/CDK2;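 as to improvement in potency against CDK2 (Ki) over Comparator C: fold lower CDK2 Ki than comparator c (Ki 0.032 µM)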
T2 construct: purchased ProQinase 0050-0055-1
Method in brief: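 Kinase reaction buffer: 50 mM HEPES pH 7.5, 10 mM MgCl2, 2 mM TCEP, 0.05% BGG, 0.01% Brij 35, with 30 min compound–enzyme pre-incubation.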

[3] = target: T3, Cyclin Dependent Kinase 4/Cyclin D3 (CDK4-cycD3) (Homo sapiens, UniProt P11802); assay: CDK4-cycD3 TR-FRET (LANCE) enzyme assay; format: biochemical; conditions: Table O, enzymatic assay
T3 construct: purchased Carna Biosciences 04-105
Method in brief: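 Compound dose responses pre-incubated 30 min with enzyme mix in 50 mM HEPES pH 7.5, 10 mM MgCl2, 2 mM TCEP, 0.05% BGG, 0.01% Brij 35. Reaction quenched with EDTA (15 mM final); Eu-anti-phospho-4E-BP1 TR-FRET detection, acceptor/donor ratio. Ki derived by Morrison equation.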

[4] = test system: OVISE (JCRB1043, CCNE1-amplified); assay: OVISE EdU incorporation cell proliferation assay (CDK2-dependent); format: cell-based; conditions: for IC50: cellular assay, read-out: CDK2 OVISE IC50; for FS SKOV-3/OVISE / FS p-H3/OVISE: fold selectivity; for FS p-H3/OVISE: cellular p-H3 IC50 over OVISE IC50; for increased fold-selectivity SKOV-3/OVISE over Comparator C: (+) sign after FS SKOV-3/OVISE; for improvement in CDK2 OVISE cell potency over Comparator C: in brackets after OVISE IC50, Comparator C 5.5 μM
Method in brief: (§1)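 EdU incorporation (0.5 μM final, last 8 h) follows a 16 h compound exposure at 37 °C, 5% CO2 in RPMI plus 10% FBS, 0.5% DMSO. After fixation, imaging scores EdU-positive cells; a 4-parameter logistic fit of that fraction gives IC50.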

SKOV-3 (ATCC HTB-77) = assay: SKOV-3 EdU incorporation cell proliferation assay (CDK4/6-dependent); format: cell-based; conditions: Homo sapiens, cellular assay, read-out: CDK4/6 SKOV-3 IC50
Method in brief: as §1

HCT116 cells = assay: p-H3 HCT-116 mitotic release cell proliferation assay (cellular CDK1); format: cell-based; conditions: Homo sapiens, HCT-116; Table O, cellular assay; read-out: CDK1 p-H3 IC50
Method in brief: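 Phospho-Histone H3 (Ser10) in lysates was quantified by a two-antibody HTRF FRET read (≥2 h, room temperature). Before this, HCT116 cells held in mitosis by 16 h of 500 nM nocodazole were treated with compound for 4 h at 37 °C, 0.1% DMSO.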

[5] = Table O, enzymatic assay, read-out: CDK2 Ki
[6] = Table O, enzymatic CDK1 Ki over CDK2 Ki
[7] = Table O, enzymatic CDK4 Ki over CDK2 Ki
[8] = Table Q, enzymatic assay, read-out: CDK2 Ki
[9] = read-out: CDK2 activity / potency (enzymatic assay)
[10] = Table O, cellular SKOV-3 IC50 over OVISE IC50

T1 sequence (P06493 whole entry): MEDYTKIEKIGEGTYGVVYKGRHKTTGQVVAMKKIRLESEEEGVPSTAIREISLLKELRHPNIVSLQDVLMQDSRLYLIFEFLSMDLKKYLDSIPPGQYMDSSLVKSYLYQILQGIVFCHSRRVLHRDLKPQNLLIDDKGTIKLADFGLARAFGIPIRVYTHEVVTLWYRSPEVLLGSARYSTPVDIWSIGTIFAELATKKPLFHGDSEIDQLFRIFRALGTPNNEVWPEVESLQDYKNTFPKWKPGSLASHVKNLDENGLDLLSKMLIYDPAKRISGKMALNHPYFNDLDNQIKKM
T1 sequence (P20248 whole entry partner): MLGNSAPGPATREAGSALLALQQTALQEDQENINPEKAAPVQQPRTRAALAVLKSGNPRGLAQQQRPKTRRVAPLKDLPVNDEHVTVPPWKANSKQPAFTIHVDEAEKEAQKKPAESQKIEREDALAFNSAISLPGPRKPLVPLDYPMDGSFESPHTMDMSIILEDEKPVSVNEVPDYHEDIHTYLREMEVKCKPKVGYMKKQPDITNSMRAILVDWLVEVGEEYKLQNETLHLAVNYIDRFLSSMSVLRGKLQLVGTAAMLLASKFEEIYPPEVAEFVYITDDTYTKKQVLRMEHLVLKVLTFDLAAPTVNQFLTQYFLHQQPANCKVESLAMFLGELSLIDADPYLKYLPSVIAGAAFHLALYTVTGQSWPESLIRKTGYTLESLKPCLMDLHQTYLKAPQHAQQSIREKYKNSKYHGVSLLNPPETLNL
T3 sequence (P11802 whole entry): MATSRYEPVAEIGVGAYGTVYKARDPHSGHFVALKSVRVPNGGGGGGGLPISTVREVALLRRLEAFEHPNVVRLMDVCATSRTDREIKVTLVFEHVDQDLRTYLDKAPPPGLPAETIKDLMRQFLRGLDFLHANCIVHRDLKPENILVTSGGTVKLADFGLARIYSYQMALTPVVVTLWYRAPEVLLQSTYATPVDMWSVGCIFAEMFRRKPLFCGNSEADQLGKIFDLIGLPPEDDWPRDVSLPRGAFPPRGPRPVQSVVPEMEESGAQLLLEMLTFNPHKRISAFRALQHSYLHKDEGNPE
T3 sequence (P30281 whole entry partner): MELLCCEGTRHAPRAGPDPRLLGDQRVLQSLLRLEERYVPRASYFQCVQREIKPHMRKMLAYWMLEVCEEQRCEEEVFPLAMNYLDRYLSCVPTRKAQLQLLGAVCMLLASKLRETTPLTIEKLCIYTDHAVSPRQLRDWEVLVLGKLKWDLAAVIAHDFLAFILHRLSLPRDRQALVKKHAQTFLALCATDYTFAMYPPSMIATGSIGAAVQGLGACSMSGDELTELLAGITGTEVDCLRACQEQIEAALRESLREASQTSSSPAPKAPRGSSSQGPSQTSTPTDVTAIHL

Structure (SMILES)	Ki [1] [µM]	improvement in potency against CDK2 (Ki) over Comparator C [2] [fold]	Ki [2, 5] [µM]	FS CDK1/CDK2 [2, 6]	FS CDK4/CDK2 [2, 7]	increased fold-selectivity CDK4/CDK2 over Comparator C ([2]; Table Q)	Ki [2, 8] [µM]	FS CDK1/CDK2 ([2]; Table Q, enzymatic)	FS CDK4/CDK2 ([2]; Table Q, enzymatic)	Ki [2, 9] [µM]	Ki [3] [µM]	IC50 ([4]; Table O) [µM]	FS SKOV-3/OVISE [4, 10]	FS p-H3/OVISE ([4]; Table O)	increased fold-selectivity SKOV-3/OVISE over Comparator C ([4]; Table Q)	FS SKOV-3/OVISE ([4]; Table Q, cellular)	improvement in CDK2 OVISE cell potency over Comparator C ([4]; Table Q) [fold]	IC50 (SKOV-3 (ATCC HTB-77); SK-OV-3, Table O) [µM]	IC50 (SKOV-3 (ATCC HTB-77); SK-OV-3, Table Q) [µM]	IC50 (HCT116 cells) [µM]	further results
CC(C)NC(=O)O[C@@H]1CC[C@H](c2cc(Nc3cncc(C(F)(F)F)n3)n[nH]2)C1 [Example 2R, (1R,3S)-3-(3-((6-(trifluoromethyl)pyrazin-2-yl)amino)-1H-pyrazol-5-yl)cyclopentyl isopropylcarbamate]	0.0004	320	< 0.0001	6.3	140	(+) (The (+) sign in Table Q signifies desirable increased fold-selectivity of the exemplary compounds over Comparator C)	< 0.0001	6.3	140	≤ 0.001	0.009	0.0056	30	0.63	(+) (The (+) sign in Table Q signifies desirable increased fold-selectivity of the exemplary compounds over Comparator C)	30	982	0.17	0.17	0.0035	
Cc1nccnc1Nc1cc([C@H]2CC[C@@H](OC(=O)NC(C)C)C2)[nH]n1 [Example 2T, (1R,3S)-3-(3-((3-methylpyrazin-2-yl)amino)-1H-pyrazol-5-yl)cyclopentyl isopropylcarbamate]	0.064	37	0.00086	74	170	(+) (The (+) sign in Table Q signifies desirable increased fold-selectivity of the exemplary compounds over Comparator C)	0.00086	74	170	≤ 0.001	0.15	0.052	29	2.3	(+) (The (+) sign in Table Q signifies desirable increased fold-selectivity of the exemplary compounds over Comparator C)	29	106	1.5	1.5	0.12	increased fold-selectivity CDK1/CDK2 over Comparator C ([2]; Table Q): (+) (The (+) sign in Table Q signifies desirable increased fold-selectivity of the exemplary compounds over Comparator C)
Cc1cnc(Nc2cc([C@H]3CC[C@@H](OC(=O)NC(C)C)C3)[nH]n2)c(C)n1 [Example 2V, (1R,3S)-3-(3-((3,5-dimethylpyrazin-2-yl)amino)-1H-pyrazol-5-y1)cyclopentyl isopropylcarbamate]	0.036	35	0.00092	39	280	(+) (The (+) sign in Table Q signifies desirable increased fold-selectivity of the exemplary compounds over Comparator C)	0.00092	39	280	≤ 0.001	0.26	0.11	23	0.88	(+) (The (+) sign in Table Q signifies desirable increased fold-selectivity of the exemplary compounds over Comparator C)	23	50	2.5	2.5	0.097	increased fold-selectivity CDK1/CDK2 over Comparator C ([2]; Table Q): (+) (The (+) sign in Table Q signifies desirable increased fold-selectivity of the exemplary compounds over Comparator C)
Cc1nc(C#N)ccc1Nc1cc([C@H]2CC[C@@H](OC(=O)NC(C)C)C2)[nH]n1 [Example 2Z, (1R,3S)-3-(3-((6-cyano-2-methylpyridin-3-yl)amino)-1H-pyrazol-5-yl)cyclopentyl isopropylcarbamate]	0.55		0.005	110	260	(+) (The (+) sign in Table Q signifies desirable increased fold-selectivity of the exemplary compounds over Comparator C)	0.005	110	260		1.3	0.25	72	1.6	(+) (The (+) sign in Table Q signifies desirable increased fold-selectivity of the exemplary compounds over Comparator C)	72	22	18	18	0.41	increased fold-selectivity CDK1/CDK2 over Comparator C ([2]; Table Q): (+) (The (+) sign in Table Q signifies desirable increased fold-selectivity of the exemplary compounds over Comparator C); improvement in potency against CDK2 (Ki) over Comparator C ([2]; Table Q, in brackets after CDK2 Ki, Comparator C 0.032 μM): 6.4 fold
O=C(NC12CC(C1)C2)O[C@@H]1CC[C@H](c2cc(Nc3cccnn3)n[nH]2)C1 [Example 3, (1R,3S)-3-(3-(pyridazin-3-ylamino)-1H-pyrazol-5-yl)cyclopentyl bicyclo[1.1.1]pentan-1-ylcarbamate]	0.047		0.0018	26	61						0.11	0.15	15	0.49				2.3		0.073	
CC1(NC(=O)O[C@@H]2CC[C@H](c3cc(Nc4cccnn4)n[nH]3)C2)CC1 [Example 3A, (1R,3S)-3-(3-(pyridazin-3-ylamino)-1H-pyrazol-5-yl)cyclopentyl (1-methylcyclopropyl)carbamate]	0.072		0.0025	29	60						0.15	0.13	21	1.2				2.7		0.16	
